Measured values: ChEMBL document CHEMBL1144311, “Synthesis of argentatin A derivatives as growth inhibitors of human cancer cell lines in vitro” (Bioorg Med Chem Lett, 2005)

Assays:
Format in all cases: functional, cell-based
[1] = test system: U-251; test: Inhibitory concentration towards human central nervous system glioblastoma cell line (U251) was determined
[2] = test system: HCT-15; test: Inhibitory concentration towards human colon adenocarcinoma cell line (HCT-15) was determined
[3] = test system: K562; test: Inhibitory concentration towards chronic myelogenous leukemic cell line (K562) was determined; settings: Homo sapiens
[4] = test system: PC-3; test: Inhibitory concentration towards human prostatic adenocarcinoma cell line (PC-3) was determined
[5] = test system: PC-3; test: Inhibitory concentration against human prostatic adenocarcinoma cell line (PC-3) was determined

Compound | IC50 [1] | IC50 [2] | IC50 [3] | IC50 [4] | IC50 [5]
CC1(C)c2oncc2C[C@]23C[C@]24CC[C@]2(C)C([C@]5(C)CC[C@H](C(C)(C)O)O5)[C@@H](O)C[C@@]2(C)C4CCC13 (stereo not given in full) | 11.3 µM | 10.2 µM | 11 µM | 13 µM | 
CC1(C)C(=O)CC[C@]23C[C@]24CC[C@]2(C)C([C@]5(C)CC[C@H](C(C)(C)O)O5)[C@@H](O)C[C@@]2(C)C4CCC13 (stereo not given in full) | 27.3 µM | 31.7 µM | 38.6 µM | 20.2 µM | 
CC1(C)C(=O)[C@H](Br)C[C@]23C[C@]24CC[C@]2(C)C([C@]5(C)CC[C@H](C(C)(C)O)O5)[C@@H](O)C[C@@]2(C)C4CCC13 (stereo not given in full) | 13.9 µM | 3.23 µM | 4.34 µM |  | 11.1 µM
CC1(C)C(=O)C=C[C@]23C[C@]24CC[C@]2(C)C([C@]5(C)CC[C@H](C(C)(C)O)O5)[C@@H](O)C[C@@]2(C)C4CCC13 (stereo not given in full) | 18.9 µM | 16.7 µM | 16.8 µM | 15.3 µM | 
CC(=O)OC1C[C@@]2(C)C3CCC4C(C)(C)C(=O)C=C[C@@]45C[C@@]35CC[C@]2(C)C1[C@]1(C)CC[C@H](C(C)(C)OC(C)=O)O1 (stereo not given in full) | 58.4 µM | > 100 µM | > 100 µM | 13.9 µM | 
CC(=O)O[C@H]1C[C@@]2(C)C3CCC4C(C)(C)/C(=N\O)CC[C@@]45C[C@@]35CC[C@]2(C)C1[C@]1(C)CC[C@H](C(C)(C)OC(C)=O)O1 (stereo not given in full) | 21.4 µM | 28.9 µM | 15.2 µM | 12.6 µM | 
CC1(C)/C(=N/O)C=C[C@]23C[C@]24CC[C@]2(C)C([C@]5(C)CC[C@H](C(C)(C)O)O5)[C@@H](O)C[C@@]2(C)C4CCC13 (stereo not given in full) | 26.8 µM | 35.8 µM | 44.4 µM | 46.9 µM | 
CC(=O)O[C@H]1C[C@@]2(C)C3CCC4C(C)(C)C(=O)CC[C@@]45C[C@@]35CC[C@]2(C)C1[C@]1(C)CC[C@H](C(C)(C)OC(C)=O)O1 (stereo not given in full) | 30.5 µM | 40.7 µM | 68.4 µM | 22.7 µM | 
CC1(C)C(=O)CC[C@]23C[C@]24CC[C@]2(C)C([C@]5(C)CCC(=O)O5)C(=O)C[C@@]2(C)C4CCC13 (stereo not given in full) | > 100 µM | > 100 µM | > 100 µM | > 100 µM | 
CC1(C)C(O)=C(C=O)C[C@]23C[C@]24CC[C@]2(C)C([C@]5(C)CC[C@H](C(C)(C)O)O5)C(O)C[C@@]2(C)C4CCC13 (stereo not given in full) | 5.88 µM | 9.82 µM | 14.4 µM | 5.69 µM | 
